Data on 24 molecules can be found in patent US20080161324A1, “Compositions and methods for treatment of viral diseases” (priority 2006, published 2008).

In data set [1] the test system is Huh7 cells expressing a subgenomic RNA replicon of Con1 (genotype 1b) sequence origin. Description: microbe, parasite or virus in culture. It is filed as cell-based, HCV.
The next data set relates to HER1-2. The note with it: selective HER1 inhibitor (vs. HER1-2); cited from earlier work.
For data set [2] the following is noted: in words; cited from earlier work.
[3] abbreviates: Table 1; inhibition of luciferase activity, 48 hours; read-out: IC50.
The mark [4] stands for this setting: Hepatitis C virus, Huh-7, 48 h; read-out: IC25 (values noted with an asterisk).
[5] abbreviates: Table 1; inhibition of luciferase activity, 48 hours.
The mark [6] stands for this setting: Hepatitis C virus, Huh-7, 48 h; read-out: IC50.

As usually defined, the IC25 is the concentration at which the effect reaches the 25% level. For orientation: pIC50 means the negative decadic logarithm of the IC50, by convention in mol/L.

pIC50: −log10 of the molar value. Structures can show the parent of a compound that is named as a salt. Where two headings read alike, the source gives them in different places. Marks after values point to notes of the source that are not given here.

In the case of `CC(C)NCC(O)COc1ccc(CCOCC2CC2)cc1` (stereo not drawn) [Betaxolol (e.g., hydrochloride), Betaxolol], the IC25 in data set [1] (Hepatitis C virus, Huh-7, 48 h, read-out: IC25 (values noted with an asterisk)) stood at 29.4 µM.
Chlorophyllin: in data set [1] (setting [3]), the pIC50 was 5.89.
As to `Clc1ccc(C(c2ccccc2Cl)C(Cl)Cl)cc1` (stereo not drawn) [Mitotane], the IC25 in data set [1] (setting [4]) was determined as 28.1 µM.
With `O=C1CC(=O)c2c(Cl)c(Cl)c(Cl)c(Cl)c21` [UCH-L3 inhibitor], in data set [1] (Table 1; inhibition of luciferase activity, 48 hours; in µM), the “IC25 (values noted with an asterisk)” value is recorded as 19.7*.
As to `Cc1ccc(/N=C/N(C)/C=N/c2ccc(C)cc2C)c(C)c1` [Amitraz], in data set [1] (setting [4]), the IC25 turned out to be 26.4 µM.
`N#C/C(=C\c1ccc(O)c(O)c1)C(=O)Nc1ccccc1` [AG-494]: the pIC50 in the data set on HER1-2 is 4.35.
Turning to `CC(=O)Nc1cccc(OCCCCCOc2cccc(NC(C)=O)c2)c1` [3′,3″-(Pentamethylenedioxy)diacetanilide], the “IC25 (values noted with an asterisk)” value in data set [1] (setting [5]) was 9.35*.
Take `COc1ccc(C(=O)NCc2cccnc2)cc1C(=O)NCc1cccnc1` [Picotamide]: the IC25 in data set [1] (setting [4]) worked out at 28.7 µM.
In the case of `CO[C@H]1C[C@@H]2CC[C@@H](C)[C@@](O)(O2)C(=O)C(=O)N2CCCC[C@H]2C(=O)O[C@H]([C@H](C)C[C@@H]2CC[C@@H](O)[C@H](OC)C2)CC(=O)[C@H](C)/C=C(\C)[C@@H](O)[C@@H](OC)C(=O)[C@H](C)C[C@H](C)/C=C/C=C/C=C/1C` [Sirolimus], the IC25 in data set [1] (setting [4]) is 0.005 µM.
In the case of `Nc1ncnc2c1ncn2CCOCP(=O)(O)O` [Adefovir (e.g., dipivoxil), Adefovir], the pIC50 in data set [1] (Table 3; inhibition of luciferase activity, 48 hours; read-out: IC50) is 6.50.
With Gramicidin, the negative-log IC50 (pIC50) in data set [1] (setting [3]) is 7.77.
On to `CC(=O)OC[C@H]1O[C@@H]([S-])[C@H](OC(C)=O)[C@@H](OC(C)=O)[C@@H]1OC(C)=O.CCP(CC)CC.[Au+]` [Auranofin], for which the solubility entry in data set [2] is listed as “insoluble in water”.
`N#C/C(=C\c1ccc(O)c(O)c1)C(N)=S` [Tyrphostin 47]: the “IC25 (values noted with an asterisk)” value in data set [1] (setting [5]) was 18.3*.
Vitamin B12: the pIC50 in data set [1] (setting [3]) was 5.08.
With `CC(=O)Nc1ccccc1OCCCCCOCC(=O)Nc1ccccc1` [2′,2″-(Pentamethylenedioxy)diacetanilide], the pIC50 in data set [1] (setting [6]) was 5.50.
For Tunicamycin, the pIC50 in data set [1] (Table 2; inhibition of luciferase activity, 48 hours; read-out: IC50) is 6.97.
In the case of `CCCCOc1ccc(OCCCN2CCOCC2)cc1` [Pramoxine (e.g., hydrochloride), Pramoxine], the IC25 in data set [1] (setting [4]) worked out at 5.17 µM.
`O=C1[C@H](CC[C@H](O)c2ccc(F)cc2)[C@@H](c2ccc(O)cc2)N1c1ccc(F)cc1` [Ezetimibe]: the pIC50 in data set [1] (setting [6]) is 5.38.
For `CC(C)=CC[C@@H](O)C1=CC(=O)c2c(O)ccc(O)c2C1=O` [Shikonin], the IC25 in data set [1] (setting [4]) amounted to 26.4 µM.
`CCCC(=O)O[C@H]1CN2CC[C@H](O)[C@@H]2[C@@H](O)[C@@H]1O` [Celgosivir]: in data set [1] (setting [4]), the IC25 amounted to 6.25 µM.
For the molecule Manganese gluconate, the negative-log IC50 (pIC50) in data set [1] (read-out: IC50) is 4.61.
`N#C/C(=C\c1ccc(O)c(O)c1)C(=O)NCc1ccccc1` [AG-490]: the pIC50 in data set [1] (setting [3]) was 5.30.
With `COc1ccc(CCN(C)CCCC(C#N)(c2ccc(OC)c(OC)c2)C(C)C)cc1OC` (stereo not drawn) [R(+)-Verapamil (e.g., hydrochloride), R(+)-Verapamil], in data set [1] (Hepatitis C virus, Huh-7, 48 h), the pIC50 is 4.80.
Regarding Beta Escin, in data set [1] (setting [3]), the pIC50 is 5.37.
